Data from patent US9611262B2, “Substituted 2-azabicycles and their use as orexin receptor modulators” (JANSSEN PHARMACEUTICA NV, priority 2014, dated 2017).

How the values were obtained:
human orexin 1 receptor = human orexin 1 receptor (Homo sapiens (Human), UniProt O43613); assay: Human orexin 1 receptor radioligand binding (competitive); conditions: CHO cells stably expressing human orexin 1 receptor; 4 nM radioligand; averages of 2-20 runs; read-out: hOX1 Ki
Method in brief: (§1)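 Competition binding used HEK293 cells expressing rat OX1 or CHO cells expressing human OX1, with 4 nM final [3H]-labelled thiazolyl-oxadiazolyl-pyrrolidinyl methanone radioligand in PBS. Compounds were tested at 7 concentrations (0.1 nM–10 μM) for 60 min at room temperature, then filtered; 10 μM almorexant defined nonspecific binding. Ki was derived from the one-site IC50 and the radioligand Kd.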

rat orexin 1 receptor = rat orexin 1 receptor (Rattus norvegicus, UniProt P56718); assay: Rat orexin 1 receptor radioligand binding (competitive); conditions: HEK293 cells stably expressing rat orexin 1 receptor; 4 nM radioligand; averages of 2-20 runs; read-out: rOX1 Ki
Method in brief: as §1

human orexin 2 receptor = human orexin 2 receptor (Homo sapiens (Human), UniProt O43614); assay: Human orexin 2 receptor radioligand binding ([3H]-EMPA competition); conditions: HEK293 stably expressing human orexin 2 receptor; 2 nM [3H]-EMPA; averages of 2-20 runs; read-out: hOX2 Ki
Chain of human orexin 2 receptor (O43614 whole entry): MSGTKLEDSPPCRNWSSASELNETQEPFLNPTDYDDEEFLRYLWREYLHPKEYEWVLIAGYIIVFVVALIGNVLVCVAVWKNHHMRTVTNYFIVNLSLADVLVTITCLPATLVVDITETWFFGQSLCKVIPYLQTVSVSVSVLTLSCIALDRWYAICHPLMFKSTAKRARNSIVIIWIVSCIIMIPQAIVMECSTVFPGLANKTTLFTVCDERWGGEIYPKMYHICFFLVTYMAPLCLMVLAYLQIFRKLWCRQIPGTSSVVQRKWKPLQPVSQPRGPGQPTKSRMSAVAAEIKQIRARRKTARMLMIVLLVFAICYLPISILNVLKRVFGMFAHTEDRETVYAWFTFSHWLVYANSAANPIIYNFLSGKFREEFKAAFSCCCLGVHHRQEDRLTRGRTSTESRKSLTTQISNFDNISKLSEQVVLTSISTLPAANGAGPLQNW
Method in brief: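 Membranes-free whole HEK293 cells stably expressing human OX2 receptor incubated with [3H]-EMPA and compound (7 concentrations, 0.1 nM–10 μM, ≤0.1% DMSO) for 60 min at room temperature; nonspecific binding with 10 μM almorexant. Filtration and scintillation counting; one-site IC50 converted to Ki using predetermined Kd, triplicates averaged over 2-20 runs.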

Chain of human orexin 1 receptor (O43613 whole entry): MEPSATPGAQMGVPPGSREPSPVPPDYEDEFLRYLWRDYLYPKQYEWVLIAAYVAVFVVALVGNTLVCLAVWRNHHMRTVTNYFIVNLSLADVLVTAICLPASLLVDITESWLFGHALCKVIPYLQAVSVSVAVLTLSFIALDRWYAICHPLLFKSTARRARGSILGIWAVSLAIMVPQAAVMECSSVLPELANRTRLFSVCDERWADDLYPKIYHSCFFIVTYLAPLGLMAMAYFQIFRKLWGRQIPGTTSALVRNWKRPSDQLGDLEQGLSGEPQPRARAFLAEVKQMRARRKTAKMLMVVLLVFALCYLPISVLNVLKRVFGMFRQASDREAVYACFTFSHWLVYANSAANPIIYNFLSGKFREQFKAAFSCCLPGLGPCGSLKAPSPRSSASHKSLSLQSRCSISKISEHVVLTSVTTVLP

Compound	Ki (human orexin 1 receptor)	Ki (rat orexin 1 receptor)	Ki (human orexin 2 receptor)
Cc1ccc(-n2nccn2)c(C(=O)N2[C@H](C)[C@@H]3CC[C@H]2[C@H](Oc2ccc(C(F)(F)F)cn2)C3)n1 [Example 156, [6-methyl-3-(triazol-2-yl)-2-pyridyl]-[(1R,2R,4S,5R)-2-methyl-5-[[5-(trifluoromethyl)-2-pyridyl]oxy]-3-azabicyclo[2.2.2]octan-3-yl]methanone]	0.01 µM	0.006 µM	1.1 µM
C[C@@H]1[C@@H]2CC[C@@H]([C@H](Oc3ccc(C(F)(F)F)cn3)C2)N1C(=O)c1ccccc1-n1nccn1 [Example 157, [(1R,2R,4S,5R)-2-methyl-5-[[5-(trifluoromethyl)-2-pyridyl]oxy]-3-azabicyclo[2.2.2]octan-3-yl]-[2-(triazol-2-yl)phenyl]methanone]	0.129 µM	0.029 µM	6 µM
Cc1ccc(-c2ncccn2)c(C(=O)N2[C@H](C)[C@@H]3CC[C@H]2[C@H](Oc2ccc(C(F)(F)F)cn2)C3)n1 [Example 158, (6-methyl-3-pyrimidin-2-yl-2-pyridyl)-[(1R,2R,4S,5R)-2-methyl-5-[[5-(trifluoromethyl)-2-pyridyl]oxy]-3-azabicyclo[2.2.2]octan-3-yl]methanone]	0.138 µM	0.035 µM	2.7 µM
C[C@@H]1[C@@H]2CC[C@@H]([C@H](Oc3ccc(C(F)(F)F)cn3)C2)N1C(=O)c1ncccc1-n1nccn1 [Example 159, [(1R,2R,4S,5R)-2-methyl-5-[[5-(trifluoromethyl)-2-pyridyl]oxy]-3-azabicyclo[2.2.2]octan-3-yl]-[3-(triazol-2-yl)-2-pyridyl]methanone]	0.041 µM	0.014 µM	2.8 µM
Cc1cnc(C(=O)N2[C@H](C)[C@@H]3CC[C@H]2[C@H](Oc2ccc(C(F)(F)F)cn2)C3)c(-n2nccn2)c1 [Example 160, [5-methyl-3-(triazol-2-yl)-2-pyridyl]-[(1R,2R,4S,5R)-2-methyl-5-[[5-(trifluoromethyl)-2-pyridyl]oxy]-3-azabicyclo[2.2.2]octan-3-yl]methanone]	0.011 µM	0.008 µM	0.872 µM
Cc1cnc(C(=O)N2[C@H](C)[C@@H]3CC[C@H]2[C@H](Oc2ccc(C(F)(F)F)cn2)C3)c(-c2ncccn2)c1 [Example 161, (5-methyl-3-pyrimidin-2-yl-2-pyridyl)-[(1R,2R,4S,5R)-2-methyl-5-[[5-(trifluoromethyl)-2-pyridyl]oxy]-3-azabicyclo[2.2.2]octan-3-yl]methanone]	0.008 µM	0.004 µM	5 µM
C[C@@H]1[C@@H]2CC[C@@H]([C@@H](Oc3ccc(C(F)(F)F)cn3)C2)N1C(=O)c1cccc(F)c1-c1ncccn1 [Example 162, (3-fluoro-2-pyrimidin-2-yl-phenyl)-[(1R,2R,4S,5S)-2-methyl-5-[[5-(trifluoromethyl)-2-pyridyl]oxy]-3-azabicyclo[2.2.2]octan-3-yl]methanone]	0.106 µM	0.236 µM	> 10 µM
C[C@@H]1[C@H]2C[C@@H](Oc3ccc(C(F)(F)F)cn3)[C@H](C2)N1C(=O)c1ccccc1-n1ncc(CCCF)n1 [Example 168, [2-[4-(3-fluoropropyl)triazol-2-yl]phenyl]-[(1R,2R,4S,5R)-2-methyl-5-[[5-(trifluoromethyl)-2-pyridyl]oxy]-3-azabicyclo[2.2.1]heptan-3-yl]methanone]	0.02 µM	0.014 µM	1.39 µM
C[C@@H]1[C@H]2C[C@@H](Oc3ccc(C(F)(F)F)cn3)[C@H](C2)N1C(=O)c1ccccc1-c1ccc(F)nc1 [Example 171, [2-(6-fluoro-3-pyridyl)phenyl]-[(1R,2R,4S,5R)-2-methyl-5-[[5-(trifluoromethyl)-2-pyridyl]oxy]-3-azabicyclo[2.2.1]heptan-3-yl]methanone]	0.017 µM	0.023 µM	1.6 µM
